Experimental findings from US11304946B2, “2-hetarylpyrimidine-4-carboxamides as aryl hydrocarbon receptor antagonists” (Bayer Aktiengesellschaft, priority 2017, dated 2022) are described below.

The target of one test is T1, Human AhR (Homo sapiens, UniProt P35869).
T1 construct: host or cells: U87 glioblastoma cells, stably transfected with DRE-driven firefly luciferase and constitutive renilla reporter constructs
T1 sequence (P35869 11-848): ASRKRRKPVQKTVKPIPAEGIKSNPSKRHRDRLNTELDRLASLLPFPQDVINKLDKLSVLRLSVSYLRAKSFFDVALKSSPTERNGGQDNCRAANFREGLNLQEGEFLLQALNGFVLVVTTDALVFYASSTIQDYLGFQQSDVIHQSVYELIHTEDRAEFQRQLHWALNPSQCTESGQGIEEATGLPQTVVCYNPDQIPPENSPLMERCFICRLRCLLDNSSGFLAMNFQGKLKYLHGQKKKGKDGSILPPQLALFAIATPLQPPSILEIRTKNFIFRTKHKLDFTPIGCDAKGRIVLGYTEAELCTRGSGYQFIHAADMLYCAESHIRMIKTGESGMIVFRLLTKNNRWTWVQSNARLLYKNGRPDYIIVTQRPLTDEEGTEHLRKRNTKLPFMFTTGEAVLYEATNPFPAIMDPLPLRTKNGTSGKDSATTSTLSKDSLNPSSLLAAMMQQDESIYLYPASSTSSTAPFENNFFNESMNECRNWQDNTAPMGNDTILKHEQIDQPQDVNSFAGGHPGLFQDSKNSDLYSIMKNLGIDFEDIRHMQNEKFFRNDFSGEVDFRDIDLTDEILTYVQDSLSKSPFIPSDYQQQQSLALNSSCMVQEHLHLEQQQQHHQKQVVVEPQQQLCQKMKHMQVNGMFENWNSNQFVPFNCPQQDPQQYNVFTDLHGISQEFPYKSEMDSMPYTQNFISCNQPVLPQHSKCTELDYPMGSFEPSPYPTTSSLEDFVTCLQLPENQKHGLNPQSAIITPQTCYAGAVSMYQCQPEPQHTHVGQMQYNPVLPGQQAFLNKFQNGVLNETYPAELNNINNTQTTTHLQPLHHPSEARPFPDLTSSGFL
Put plainly: Transactivation assay in human cell line (in vitro assay 1: antagonism). The class given is cell-based. To be noted: U87 glioblastoma cells, AHR inducible (DRE) firefly luciferase reporter, 150 μM kynurenic acid, 20 hours. How it is done:
Transactivation Assay in Human Cell Line (In Vitro Assay 1)
Transactivation assay was carried out in U87 glioblastoma cells (ATCC) endogenously expressing AHR. In addition the cells were stably transfected with an AHR inducible firefly luciferase reporter gene construct that carried AHR-binding sites (DRE) in its promoter and a renilla reporter gene construct with constitutively active promoter. Kynurenic acid is an endogenous AHR activating ligand and was used to prestimulate test cells prior to testing the antagonistic properties of compounds.
In Vitro Assay 1: Antagonism in Human Cell Line
Firefly luciferase and Renilla activity was determined by the DualGlo Luciferase Assay System (Promega, #2920). Renilla activity was used to assess toxic effects of compounds.

A further test deals with T2, Mouse AhR (Mus musculus, UniProt P30561).
T2 sequence (P30561 1-848): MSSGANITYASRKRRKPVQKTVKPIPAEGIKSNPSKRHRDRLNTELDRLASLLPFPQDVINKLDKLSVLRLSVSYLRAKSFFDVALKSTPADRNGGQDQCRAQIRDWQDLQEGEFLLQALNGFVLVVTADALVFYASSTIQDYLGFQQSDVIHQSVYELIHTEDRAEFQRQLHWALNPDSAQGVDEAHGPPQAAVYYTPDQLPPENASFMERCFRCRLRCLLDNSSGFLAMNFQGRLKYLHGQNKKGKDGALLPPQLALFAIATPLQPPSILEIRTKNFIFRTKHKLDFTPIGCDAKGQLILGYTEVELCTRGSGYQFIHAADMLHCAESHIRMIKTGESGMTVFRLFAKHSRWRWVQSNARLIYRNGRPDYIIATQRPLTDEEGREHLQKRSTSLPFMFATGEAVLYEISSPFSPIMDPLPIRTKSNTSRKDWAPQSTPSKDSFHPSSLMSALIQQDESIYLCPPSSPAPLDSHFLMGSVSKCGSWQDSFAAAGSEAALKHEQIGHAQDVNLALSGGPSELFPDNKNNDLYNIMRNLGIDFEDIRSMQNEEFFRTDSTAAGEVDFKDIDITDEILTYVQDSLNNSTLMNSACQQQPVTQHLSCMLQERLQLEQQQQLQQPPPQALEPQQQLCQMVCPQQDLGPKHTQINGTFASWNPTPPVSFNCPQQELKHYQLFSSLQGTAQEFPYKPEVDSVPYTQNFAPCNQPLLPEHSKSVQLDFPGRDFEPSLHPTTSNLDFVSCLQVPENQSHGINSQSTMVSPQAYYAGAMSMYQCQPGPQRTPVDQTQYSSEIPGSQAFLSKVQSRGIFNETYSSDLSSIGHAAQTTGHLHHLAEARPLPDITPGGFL
Put plainly: Transactivation assay in mouse cell line (in vitro assay 2: antagonism). The following applies: Hepa 1c1c7 cells, AHR inducible (DRE) firefly luciferase reporter, 200 μM kynurenic acid, 20 hours. Format: cell-based. The protocol: Transactivation Assay in Mouse Cell Line (In Vitro Assay 2)
Transactivation assay was carried out in Hepa 1c1c7 cells (ATCC #CRL-2026) endogenously expressing AHR. In addition the cells were stably transfected with an AHR inducible firefly luciferase reporter gene construct that carried AHR-binding sites (DRE) in its promoter. Kynurenic acid is an endogenous AHR activating ligand and was used to prestimulate test cells prior to testing the antagonistic properties of compounds.
In Vitro Assay 2: Antagonism in Mouse Cell Line
Firefly luciferase activity was determined by the SteadyGlo Luciferase Assay System (Promega, #E2550).

One may read the IC50 as the concentration at which inhibition is half-maximal. Lower therefore signals greater potency. For `C[C@@H](CO)NC(=O)c1cc(-c2ccc(Cl)cc2)nc(-c2cccnc2)n1` [Example 9, 6-(4-chlorophenyl)-N-[(2S)-1-hydroxypropan-2-yl]-2-(pyridin-3-yl)pyrimidine-4-carboxamide], the IC50 on Human AhR turned out to be 0.0011 µM; against Mouse AhR, 0.00284 µM.
For `CC(C)(O)CNC(=O)c1cc(-c2ccc(Cl)cc2)nc(-c2cccnc2)n1` [Example 10, 6-(4-chlorophenyl)-N-(2-hydroxy-2-methylpropyl)-2-(pyridin-3-yl)pyrimidine-4-carboxamide], in that order: 0.00138 µM and 0.00842 µM.
As to `C[C@@H](CO)NC(=O)c1cc(-c2ccc(Cl)cc2)nc(-c2cnn(C)c2)n1` [Example 11, 6-(4-chlorophenyl)-N-[(2S)-1-hydroxypropan-2-yl]-2-(1-methyl-1H-pyrazol-4-yl)pyrimidine-4-carboxamide], the IC50 against Human AhR was determined as 0.00393 µM; against Mouse AhR, 0.00794 µM.
With `C[C@H](CO)NC(=O)c1cc(-c2ccc(Cl)cc2)nc(-c2cnn(C)c2)n1` [Example 12, 6-(4-chlorophenyl)-N-[(2R)-1-hydroxypropan-2-yl]-2-(1-methyl-1H-pyrazol-4-yl)pyrimidine-4-carboxamide], the results for the IC50 at Human AhR and on Mouse AhR were 0.0734 µM and 0.206 µM, respectively.
Regarding `Cn1cc(-c2nc(C(=O)NCC(C)(C)O)cc(-c3ccc(Cl)cc3)n2)cn1` [Example 13, 6-(4-chlorophenyl)-N-(2-hydroxy-2-methylpropyl)-2-(1-methyl-1H-pyrazol-4-yl)pyrimidine-4-carboxamide], the values for the IC50 at Human AhR and against Mouse AhR were 0.0143 µM and 0.0581 µM, respectively.
Turning to `CC(C)(O)CNC(=O)c1cc(-c2ccc(OC(F)(F)F)cc2)nc(-c2cn[nH]c2)n1` [Example 20, N-(2-hydroxy-2-methylpropyl)-2-(1H-pyrazol-4-yl)-6-[4-(trifluoromethoxy)phenyl]pyrimidine-4-carboxamide], the results for the IC50 on Human AhR and on Mouse AhR were 0.717 µM and 0.354 µM, respectively.
As to `Cc1ncc(-c2nc(C(=O)NCC(C)(C)O)cc(-c3ccc(OC(F)(F)F)cc3)n2)cn1` [Example 21, N-(2-hydroxy-2-methylpropyl)-2′-methyl-6-[4-(trifluoromethoxy)phenyl][2,5′-bipyrimidine]-4-carboxamide], the IC50 against Human AhR stood at 0.379 µM; on Mouse AhR it was 2.13 µM.
With `CC(C)(O)CNC(=O)c1cc(-c2ccc(OC(F)(F)F)cc2)nc(-c2cnoc2)n1` [Example 22, N-(2-hydroxy-2-methylpropyl)-2-(1,2-oxazol-4-yl)-6-[4-(trifluoromethoxy)phenyl]pyrimidine-4-carboxamide], the IC50 against Human AhR came to 1.1 µM; against Mouse AhR it was 5.53 µM.
On to `Cc1[nH]ncc1-c1nc(C(=O)NCC(C)(C)O)cc(-c2ccc(OC(F)(F)F)cc2)n1` [Example 24, N-(2-hydroxy-2-methylpropyl)-2-(3-methyl-1H-pyrazol-4-yl)-6-[4-(trifluoromethoxy)phenyl]pyrimidine-4-carboxamide], for which the figures for the IC50 on Human AhR and on Mouse AhR were 0.208 µM and 0.359 µM, respectively.
The corresponding values for `Cc1nn(C)cc1-c1nc(C(=O)NCC(C)(C)O)cc(-c2ccc(OC(F)(F)F)cc2)n1` [Example 25, 2-(1,3-dimethyl-1H-pyrazol-4-yl)-N-(2-hydroxy-2-methylpropyl)-6-[4-(trifluoromethoxy)phenyl]pyrimidine-4-carboxamide] are 0.00805 µM and 0.11 µM.
On to `C[C@@H](CO)NC(=O)c1cc(-c2ccc(OC(F)(F)F)cc2)nc(-c2ccc(C#N)s2)n1` [Example 28, 2-(5-cyanothiophen-2-yl)-N-[(2S)-1-hydroxypropan-2-yl]-6-[4-(trifluoromethoxy)phenyl]pyrimidine-4-carboxamide], for which the figures for the IC50 against Human AhR and against Mouse AhR were 0.167 µM and 0.229 µM, respectively.
For `C[C@@H](CO)NC(=O)c1cc(-c2ccc(OC(F)(F)F)cc2)nc(-c2ccc(Cl)s2)n1` [Example 32, 2-(5-chlorothiophen-2-yl)-N-[(2S)-1-hydroxypropan-2-yl]-6-[4-(trifluoromethoxy)phenyl]pyrimidine-4-carboxamide], the figures for the IC50 against Human AhR and on Mouse AhR were 0.0462 µM and 0.0388 µM, respectively.
As to `C[C@@H](CO)NC(=O)c1cc(-c2ccc(OC(F)(F)F)cc2)nc(-c2ccnn2C)n1` [Example 34, N-[(2S)-1-hydroxypropan-2-yl]-2-(1-methyl-1H-pyrazol-5-yl)-6-[4-(trifluoromethoxy)phenyl]pyrimidine-4-carboxamide], the IC50 against Human AhR was 0.0296 µM; against Mouse AhR, 0.024 µM.
For `Cc1noc(C)c1-c1nc(C(=O)N[C@@H](C)CO)cc(-c2ccc(OC(F)(F)F)cc2)n1` [Example 35, 2-(3,5-dimethyl-1,2-oxazol-4-yl)-N-[(2S)-1-hydroxypropan-2-yl]-6-[4-(trifluoromethoxy)phenyl]pyrimidine-4-carboxamide], in that order: 1.03 µM and 5.31 µM.
Take `CC(C)Cn1cc(-c2nc(C(=O)N[C@@H](C)CO)cc(-c3ccc(OC(F)(F)F)cc3)n2)cn1` [Example 36, N-[(2S)-1-hydroxypropan-2-yl]-2-[1-(2-methylpropyl)-1H-pyrazol-4-yl]-6-[4-(trifluoromethoxy)phenyl]pyrimidine-4-carboxamide]: the IC50 stood at 5.22 µM at Human AhR and 10 µM against Mouse AhR.
The corresponding values for `C[C@@H](CO)NC(=O)c1cc(-c2ccc(OC(F)(F)F)cc2)nc(-c2cc[nH]n2)n1` [Example 37, N-[(2S)-1-hydroxypropan-2-yl]-2-(1H-pyrazol-3-yl)-6-[4-(trifluoromethoxy)phenyl]pyrimidine-4-carboxamide] are 0.0717 µM and 0.093 µM.
In the case of `Cc1ccc(-c2nc(C(=O)N[C@@H](C)CO)cc(-c3ccc(OC(F)(F)F)cc3)n2)cn1` [Example 39, N-[(2S)-1-hydroxypropan-2-yl]-2-(6-methylpyridin-3-yl)-6-[4-(trifluoromethoxy)phenyl]pyrimidine-4-carboxamide], the IC50 at Human AhR worked out at 0.0684 µM; against Mouse AhR, 0.431 µM.
For `COc1ccncc1-c1nc(C(=O)N[C@@H](C)CO)cc(-c2ccc(OC(F)(F)F)cc2)n1` [Example 40, N-[(2S)-1-hydroxypropan-2-yl]-2-(4-methoxypyridin-3-yl)-6-[4-(trifluoromethoxy)phenyl]pyrimidine-4-carboxamide], the results for the IC50 on Human AhR and on Mouse AhR were 0.00424 µM and 0.0426 µM, respectively.
As for `C[C@@H](CO)NC(=O)c1cc(-c2ccc(OC(F)(F)F)cc2)nc(-c2cn[nH]c2)n1` [Example 41, N-[(2S)-1-hydroxypropan-2-yl]-2-(1H-pyrazol-4-yl)-6-[4-(trifluoromethoxy)phenyl]pyrimidine-4-carboxamide], the IC50 turned out to be 0.0976 µM at Human AhR and 0.0558 µM against Mouse AhR.
